The target in this experiment is Metabotropic glutamate receptor 2 (Homo sapiens, UniProt Q14416). Nature of the experiment: [35S]-GTPγS Assay: The stimulation of [35S]-GTPγS binding is a common functional assay to monitor Gαi-coupled receptor in native and recombinant receptor membrane preparation. Membrane from cells stably expressing hmGlu2 CHO-K1 (50 μg) are incubated in a 96 well plate for 1 hour in the presence of GTPγS35 (0.05 nM), GDP (5 μM) and compounds. The reaction is stopped by rapid filtration over Unifilter GF/B plate (Packard, Bioscience, Meriden Conn.) using a 96-well cell harvester (Brandel Gaithersburg, Md.). The filter plates are counted using Topcount counter (Packard, Bioscience, Meriden Conn., USA). When compounds are evaluated as potentiators they are tested in the presence of glutamate (1 μM).
Sequence of Metabotropic glutamate receptor 2 (Q14416 whole entry): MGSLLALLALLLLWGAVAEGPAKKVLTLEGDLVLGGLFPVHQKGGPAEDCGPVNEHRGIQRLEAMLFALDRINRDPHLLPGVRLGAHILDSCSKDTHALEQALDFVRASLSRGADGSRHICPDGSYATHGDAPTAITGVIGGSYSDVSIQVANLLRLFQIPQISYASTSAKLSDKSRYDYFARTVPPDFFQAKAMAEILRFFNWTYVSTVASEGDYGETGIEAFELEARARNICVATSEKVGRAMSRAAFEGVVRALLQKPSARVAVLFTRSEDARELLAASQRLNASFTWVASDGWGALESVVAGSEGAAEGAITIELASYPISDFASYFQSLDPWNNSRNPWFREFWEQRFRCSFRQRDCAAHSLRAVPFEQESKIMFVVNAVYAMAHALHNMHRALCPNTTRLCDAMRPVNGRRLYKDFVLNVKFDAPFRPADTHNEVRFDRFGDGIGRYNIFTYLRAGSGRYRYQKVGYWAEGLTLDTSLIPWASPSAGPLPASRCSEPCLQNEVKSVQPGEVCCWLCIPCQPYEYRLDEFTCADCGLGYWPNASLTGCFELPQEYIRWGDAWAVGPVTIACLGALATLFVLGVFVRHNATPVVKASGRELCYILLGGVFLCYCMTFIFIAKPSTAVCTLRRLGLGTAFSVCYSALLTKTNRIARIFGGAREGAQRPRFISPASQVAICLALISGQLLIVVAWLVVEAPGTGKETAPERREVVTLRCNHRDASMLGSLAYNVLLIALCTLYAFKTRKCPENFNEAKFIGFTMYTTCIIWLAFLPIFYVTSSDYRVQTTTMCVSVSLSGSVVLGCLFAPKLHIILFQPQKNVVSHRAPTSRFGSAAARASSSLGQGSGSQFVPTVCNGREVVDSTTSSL

In the case of `Cn1c(=O)n(CC(C)(C)C)c2ccc(C3=CC4CN(C(=O)C5(O)CCC5)CC4C3)nc21` (configuration not stated), the concentration for a half-maximal effect (EC50) was 51.4 nM. As for `Cn1c(=O)n(CC(C)(C)C)c2ccc(C3=CC4CCC3CN4C(=O)Cn3cncn3)nc21` (configuration not stated), the EC50 is 115 nM.

On to `Cn1c(=O)n(CC2CC2(F)F)c2ccc(C3=CC4CCC3CN4C(=O)c3ccon3)nc21` (configuration not stated), for which the EC50 stood at 26.6 nM. As for `Cn1c(=O)n(CC(C)(C)C)c2ccc(C3=CC4CCC3CN4C(=O)C3CC3)nc21` (configuration not stated), the EC50 came to 215 nM. As to `CN1c2nc(C3=CC4CN(C(=O)C(C)(C)O)CC4C3)ccc2N(CC2CC2(F)F)S1(=O)=O` (configuration not stated), the EC50 was determined as 88.6 nM.

For `CC1C(c2ccc3c(n2)N(C)S(=O)(=O)N3CC2CC2(F)F)C1C(C)(C)O` (configuration not stated), the EC50 was 40.6 nM. On to `Cn1c(=O)n(CC(C)(C)C)c2ccc(C3=CC4CCC3CN4C(=O)c3cccnc3)nc21` (configuration not stated), for which the EC50 came to 299 nM. On to `Cn1c(=O)n(CC2CC2(F)F)c2ccc(C3=CC4CN(C(=O)c5ncco5)CC4C3)nc21` (configuration not stated), for which the half-maximal effective concentration (EC50) came out at 248 nM. In the case of `Cn1c(=O)n(CC(C)(C)C)c2ccc(C3=CC4CCC3CN4C(=O)c3csnn3)nc21` (configuration not stated), the EC50 was 69.3 nM. The same measure for `Cn1c(=O)n(CC(C)(C)C)c2ccc(C3=CC4CCC3CN4C(=O)c3ncco3)nc21` (configuration not stated): 17.9 nM; for `Cn1c(=O)n(CC(C)(C)C)c2ccc(C3=CC4CN(C(=O)c5ncco5)CC4C3)nc21` (configuration not stated): 54.7 nM; for `Cn1c(=O)n(CC(C)(C)C)c2ccc(C3=CC4CN(C(=O)CO)CC4C3)nc21` (configuration not stated): 2820 nM.

(Values after ChEMBL document CHEMBL3886657, “Imidazopyridin-2-one derivatives” (2016).)
